In brackets after ≈: the same amount, converted by molar mass. Activity calls are given as the source filed them. The calls are words filed in the database; no cut-off is given here.
Experiments:
[1] = target: Alpha-glucosidase (Saccharomyces cerevisiae S288c, UniProt P53341+P38158+P07265); assay: Inhibition of yeast Alpha glucosidase 4-nitrophenyl-alpha-D-glucopyranoside incubated for 15 to 20 mins by Bio-rad microplate reader analysis; format: protein assay
[2] = target: T1, Alpha-amylase (Sus scrofa domesticus, UniProt Q7M328); assay: Inhibition of porcine pancreatic Alpha-amylase using starch as substrate preincubated for 10 mins followed by substrate addition and measured after 15 mins by Bio-rad microplate reader analysis; conditions: read-out: IC50
T1 sequence (Q7M328 whole entry): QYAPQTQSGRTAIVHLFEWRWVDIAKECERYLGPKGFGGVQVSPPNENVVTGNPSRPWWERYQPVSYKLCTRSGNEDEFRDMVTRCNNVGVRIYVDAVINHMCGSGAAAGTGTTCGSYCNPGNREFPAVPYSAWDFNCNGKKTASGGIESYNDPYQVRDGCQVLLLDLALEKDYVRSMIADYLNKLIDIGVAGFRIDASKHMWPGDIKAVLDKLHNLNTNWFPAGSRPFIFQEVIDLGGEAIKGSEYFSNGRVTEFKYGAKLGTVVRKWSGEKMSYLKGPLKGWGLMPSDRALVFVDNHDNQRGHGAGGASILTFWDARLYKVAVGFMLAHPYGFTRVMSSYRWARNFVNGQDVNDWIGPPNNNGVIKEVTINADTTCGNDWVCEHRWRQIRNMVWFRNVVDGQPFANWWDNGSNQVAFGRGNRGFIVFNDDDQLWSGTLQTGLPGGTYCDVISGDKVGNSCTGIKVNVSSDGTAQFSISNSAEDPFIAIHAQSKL

[3] = Antioxidant activity assessed as DPPH radical scavenging activity measured for 30 mins by spectrophotometric analysis; format: functional; conditions: read-out: IC50
[4] = tested on: PANC-1; assay: Cytotoxicity against human PANC-1 cells assessed as inhibition of cell growth; format: functional, cell-based; conditions: Homo sapiens, PANC-1; read-out: IC50
[5] = tested on: PANC-1; assay: Induction of ROS production in high glucose-induced human PANC-1 cells assessed as maximum fluorescence intensity at 10 uM incubated for 30 mins DCFDA-staining based flow cytometry analysis (reference value: 15.09); format: functional; conditions: 0.5 h
[6] = tested on: Rattus norvegicus; assay: Antidiabetic activity against streptozotocin-induced Wistar rat assessed as decrease in blood glucose level at 10 mg/kg, po measured at 30 mins by oral glucose test; format: functional, organism-based
[7] = tested on: Rattus norvegicus; assay: Antidiabetic activity against streptozotocin-induced Wistar rat assessed as decrease in blood glucose level at 10 mg/kg, po measured at 60 mins by oral glucose test; format: functional, organism-based
[8] = Toxicity in Wistar rat assessed as decrease in body weight at 10 mg/kg, po measured on day 14; format: organism-based; conditions: in vivo, 336 h, time 14 day
[9] = Toxicity in Wistar rat assessed as decrease in body weight at 10 mg/kg, po measured on day 35; format: organism-based; conditions: in vivo, 840 h, time 35 day
[10] = tested on: Rattus norvegicus; assay: Antidiabetic activity against streptozotocin-induced Wistar rat assessed as effect on blood glucose level at 10 mg/kg, po measured on day 1; format: functional, organism-based; conditions: time 1.0 day
[11] = tested on: Rattus norvegicus; assay: Antidiabetic activity against streptozotocin-induced Wistar rat assessed as effect on blood glucose level at 10 mg/kg, po measured on day 4; format: functional, organism-based; conditions: time 4.0 day
[12] = tested on: Rattus norvegicus; assay: Antidiabetic activity against streptozotocin-induced Wistar rat assessed as increase in PPAR-gamma level at 10 mg/kg, po measured upto 35 days by ELISA analysis; format: functional, organism-based; conditions: time <= 35.0 day
[13] = tested on: Rattus norvegicus; assay: Antidiabetic activity against streptozotocin-induced Wistar rat assessed as increase in serum amylase level at 10 mg/kg, po measured upto 35 days by ELISA analysis; format: functional, organism-based; conditions: time <= 35.0 day
[14] = tested on: Rattus norvegicus; assay: Antidiabetic activity against Wistar rat assessed as decrease in total cholesterol level at 10 mg/kg, po measured upto 35 days; format: functional, organism-based; conditions: time <= 35.0 day
[15] = tested on: Rattus norvegicus; assay: Antidiabetic activity against streptozotocin-induced Wistar rat assessed as decrease in HDL level at 10 mg/kg, po measured upto 35 days; format: functional, organism-based; conditions: time <= 35.0 day
[16] = tested on: Rattus norvegicus; assay: Antidiabetic activity against streptozotocin-induced Wistar rat assessed as decrease in triglyceride level at 10 mg/kg, po measured upto 35 days; format: functional, organism-based; conditions: time <= 35.0 day
[17] = tested on: Rattus norvegicus; assay: Antidiabetic activity against streptozotocin-induced Wistar rat assessed as decrease in MDA level at 10 mg/kg, po measured upto 35 days; format: functional, organism-based; conditions: time <= 35.0 day
[18] = tested on: Rattus norvegicus; assay: Antidiabetic activity against streptozotocin-induced Wistar rat assessed as decrease in SOD level at 10 mg/kg, po measured upto 35 days; format: functional, organism-based; conditions: time <= 35.0 day
[19] = tested on: Rattus norvegicus; assay: Antidiabetic activity against streptozotocin-induced Wistar rat assessed as effect on glutathione level at 10 mg/kg, po measured upto 35 days; format: functional, organism-based; conditions: time <= 35.0 day
[20] = tested on: Rattus norvegicus; assay: Antidiabetic activity against Wistar rat assessed as effect on glutathione level at 10 mg/kg, po measured upto 35 days; format: functional, organism-based; conditions: time <= 35.0 day
[21] = tested on: Rattus norvegicus; assay: Antidiabetic activity against streptozotocin-induced Wistar rat assessed as change in blood urea nitrogen level at 10 mg/kg, po measured upto 35 days; format: functional, organism-based; conditions: time <= 35.0 day
[22] = tested on: Rattus norvegicus; assay: Antidiabetic activity against Wistar rat assessed as increase in serum creatine level at 10 mg/kg, po measured upto 35 days; format: functional, organism-based; conditions: time <= 35.0 day
[23] = tested on: Rattus norvegicus; assay: Antidiabetic activity against streptozotocin-induced Wistar rat assessed as increase in serum ALP level at 10 mg/kg, po measured upto 35 days; format: functional, organism-based; conditions: time <= 35.0 day
[24] = tested on: Rattus norvegicus; assay: Antidiabetic activity against streptozotocin-induced Wistar rat assessed as change in serum SGOT level at 10 mg/kg, po measured upto 35 days; format: functional, organism-based; conditions: time <= 35.0 day
[25] = tested on: Rattus norvegicus; assay: Antidiabetic activity against streptozotocin-induced Wistar rat assessed as change in serum SGPT level at 10 mg/kg, po measured upto 35 days; format: functional, organism-based; conditions: time <= 35.0 day
[26] = tested on: Rattus norvegicus; assay: Antidiabetic activity against streptozotocin-induced Wistar rat assessed as increase in TNF-alpha level in Pancreas at 10 mg/kg, po measured upto 35 days; format: functional, organism-based; conditions: time <= 35.0 day
[27] = tested on: Rattus norvegicus; assay: Antidiabetic activity against streptozotocin-induced Wistar rat assessed as increase in IL1-beta level in Pancreas at 10 mg/kg, po measured upto 35 days; format: functional, organism-based; conditions: time <= 35.0 day
[28] = Toxicity in streptozotocin-induced Wistar rat assessed as changes in organ to body weight ratio at 10 mg/kg, po measured up to 35 days; format: organism-based; conditions: in vivo, 840 h, time < 35 day
[29] = Toxicity in streptozotocin-induced Wistar rat assessed as decrease in basophil count at 10 mg/kg, po measured up to 35 days; format: organism-based; conditions: in vivo, 840 h, time < 35 day
[30] = Toxicity in streptozotocin-induced Wistar rat assessed as decrease in eosinophil count at 10 mg/kg, po measured up to 35 days; format: organism-based; conditions: in vivo, 840 h, time < 35 day
[31] = Toxicity in streptozotocin-induced Wistar rat assessed as change in blood lymphocyte count at 10 mg/kg, po measured up to 35 days; format: organism-based; conditions: in vivo, 840 h, time < 35 day
[32] = Toxicity in streptozotocin-induced Wistar rat assessed as morphological changes in pancrease at 10 mg/kg, po measured up to 35 days; format: organism-based; conditions: in vivo, 840 h, time < 35 day
[33] = Toxicity in streptozotocin-induced Wistar rat assessed as morphological changes in kidney at 10 mg/kg, po measured up to 35 days; format: organism-based; conditions: in vivo, 840 h, time < 35 day
[34] = Toxicity in streptozotocin-induced Wistar rat assessed as decrease in tubular necrosis in kidney at 10 mg/kg, po measured up to 35 days; format: organism-based; conditions: in vivo, 840 h, time < 35 day
[35] = Toxicity in streptozotocin-induced Wistar rat assessed as decrease in dilation of renal tubules in kidney at 10 mg/kg, po measured up to 35 days; format: organism-based; conditions: in vivo, 840 h, time < 35 day
[36] = Toxicity in streptozotocin-induced Wistar rat assessed as morphological changes in liver at 10 mg/kg, po measured up to 35 days; format: organism-based; conditions: in vivo, 840 h, time < 35 day
[37] = tested on: Rattus norvegicus; assay: Antidiabetic activity against streptozotocin-induced Wistar rat assessed as effect on serum catalase level at 10 mg/kg, po measured upto 35 days; format: functional, organism-based; conditions: time <= 35.0 day
[38] = tested on: Rattus norvegicus; assay: Antidiabetic activity against streptozotocin-induced Wistar rat assessed as change in uric acid level at 10 mg/kg, po measured upto 35 days; format: functional, organism-based; conditions: time <= 35.0 day
[39] = tested on: Rattus norvegicus; assay: Antidiabetic activity against streptozotocin-induced Wistar rat assessed as increase in serum creatine level at 10 mg/kg, po measured upto 35 days; format: functional, organism-based; conditions: time <= 35.0 day
[40] = target: T2, Alpha amylase (Homo sapiens, UniProt P0DUB6); assay: Inhibition of Alpha-amylase (unknown origin); format: protein assay
T2 sequence (P0DUB6 whole entry): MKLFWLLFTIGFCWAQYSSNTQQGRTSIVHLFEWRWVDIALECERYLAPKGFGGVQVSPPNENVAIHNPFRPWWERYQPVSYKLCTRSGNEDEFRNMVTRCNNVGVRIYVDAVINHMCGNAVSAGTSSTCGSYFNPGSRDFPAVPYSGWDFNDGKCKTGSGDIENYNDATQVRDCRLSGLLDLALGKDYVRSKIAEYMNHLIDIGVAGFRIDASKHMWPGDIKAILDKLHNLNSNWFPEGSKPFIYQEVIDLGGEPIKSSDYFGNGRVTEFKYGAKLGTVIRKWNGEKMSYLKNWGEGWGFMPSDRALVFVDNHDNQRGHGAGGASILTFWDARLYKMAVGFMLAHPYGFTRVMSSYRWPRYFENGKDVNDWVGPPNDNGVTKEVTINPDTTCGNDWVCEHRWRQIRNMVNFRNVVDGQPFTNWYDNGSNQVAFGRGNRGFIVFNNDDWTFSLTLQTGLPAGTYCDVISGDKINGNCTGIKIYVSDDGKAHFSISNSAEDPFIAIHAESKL

[41] = Antioxidant activity assessed as DPPH radical scavenging activity; format: functional
[42] = tested on: Rattus norvegicus; assay: Antidiabetic activity against streptozotocin-induced Wistar rat assessed as change in BUN level at 10 mg/kg, po measured upto 35 days; format: functional, organism-based; conditions: time <= 35.0 day
[43] = Toxicity in streptozotocin-induced Wistar rat assessed as decrease in glomeruli shrinkage in kidney at 10 mg/kg, po measured up to 35 days; format: organism-based; conditions: in vivo, 840 h, time < 35 day

Structure (SMILES)	IC50 [1] [µM]	IC50 [2] [µM]	IC50 [3] [µM]	IC50 [4] [µM]	Flu intensity [5]	Activity [6]	Activity [7]	Activity [8]	Activity [9]	Activity [10]	Activity [11]	Activity [12]	Activity [13]	Activity [14]	Activity [23]	Activity [24]	Activity [25]	Activity [26]	Activity [27]	Activity [32]	other results
CCOc1cc(/C=C2\SC(=O)N(Cc3cccc([N+](=O)[O-])c3)C2=O)ccc1O	10.33	10.2	14.9	207	1324	Active	Active	Non-Toxic	Toxic	Active	Active	Active	Active	Active	Active	Active	Active	Active	Active	Non-Toxic	Activity [15]: Active; Activity [16]: Active; Activity [17]: Active; Activity [18]: Active; Activity [19]: inactive; Activity [20]: Active; Activity [21]: Active; Activity [22]: Active; Activity [28]: Non-Toxic; Activity [29]: Non-Toxic; Activity [30]: Non-Toxic; Activity [31]: Non-Toxic; Activity [33]: Non-Toxic; Activity [34]: Non-Toxic; Activity [35]: Non-Toxic; Activity [36]: Non-Toxic
O=C1S/C(=C\c2ccc(Cl)cc2Cl)C(=O)N1Cc1cccc([N+](=O)[O-])c1	20.94	24.1	23.2	152	1474	Active	Active	Non-Toxic		Active	Active		Active		Active	inactive	inactive	Active	Active	Non-Toxic	Activity [37]: Active; Activity [38]: Active; Activity [39]: Active; Activity [36]: Non-Toxic
O=C(O)CN1C(=O)S/C(=C\c2ccc3c(c2)OCO3)C1=O																					IC50 [40]: 10.26 µg/mL (≈ 33.4 µM); IC50 [41]: 10.78 µg/mL (≈ 35.1 µM)
O=C1S/C(=C\c2ccc(Br)cc2)C(=O)N1Cc1cccc([N+](=O)[O-])c1	20.02	23.9	23.3	62.2	1514		Active	Non-Toxic	Toxic	Active	Active	Active		Active	Active	Active	Active	Active	Active	Non-Toxic	Activity [15]: Active; Activity [16]: Active; Activity [17]: Active; Activity [18]: Active; Activity [19]: inactive; Activity [20]: Active; Activity [21]: Active; Activity [42]: Active; Activity [22]: Active; Activity [28]: Non-Toxic; Activity [29]: Non-Toxic; Activity [30]: Non-Toxic; Activity [31]: Non-Toxic; Activity [33]: Non-Toxic; Activity [34]: Non-Toxic; Activity [43]: Non-Toxic; Activity [35]: Non-Toxic

Source: ChEMBL document CHEMBL5543083, “3,5-Disubstituted-thiazolidine-2,4-dione hybrids as antidiabetic agents: Design, synthesis, in-vitro and In vivo evaluation” (Eur J Med Chem, 2024)
